Source: publication PMC6278353 (Molecules, 2018)

How the values were obtained:
[1] = Stability of vancomycin in serum under various storage conditions (QC samples, HPLC-Q-trap-MS); type: in vitro ADME, human; conditions: serum at 4 °C and 25 °C for 24 h, after three freezing and thawing cycles and stored at −80 °C for 30 days; three concentrations
Experimental: The IS working solution was diluted with deionized water to give a final concentration of 100 ng/mL. Quality control (QC) samples were prepared in 100 μL of blank serum by adding 10 μL of serially diluted solutions of the substance to determine the limit of quantification, as well as 2 ng/mL (low), 20 ng/mL (medium), and 400 ng/mL (high) concentrations. The L, M, and H of QCs were analyzed at least in duplicate. All solutions were stored at −20 °C and brought to room temperature before use.
The chromatographic separation was performed on an Agilent ZORBAX SB-C18 (4.6 × 150 mm, 5 μm). The mobile phase consisted of water (containing 0.1% formic acid, v/v) and acetonitrile (containing 0.1% formic acid, v/v) and the flow rate was set at 0.5 mL/min. An isocratic elution was performed with 30% of acetonitrile. The total run time was 8 min. The injection volume was 10 μL. […]
The pretreatment followed for all samples was 10 μL of the IS was added to 20 μL of the standard and unknown serum samples and mixed vigorously for 20 s. […] Two-hundred microliters of mobile phase was added to the resulting residue and vortexed for 1 min; 100 μL was analyzed.
For the bench-top stability during handing, QC samples were prepared and kept room temperature (25 °C) for 6 h. […] Stability of sample in autosampler was determined by analyzing the targets after kept in an autosampler at room temperature for 12 h.

[2] = Steady-state trough serum vancomycin concentration in DFI patients and nondiabetic patients with pneumonia; type: in vivo, human; conditions: 1g q12h; for Trough Concentration of vancomycin: mean ± SD, SD
Experimental: Clinical samples were collected at Air Force General Hospital, PLA. […] Human blank serum was obtained from healthy blood donors not using vancomycin (Air Force General Hospital, PLA.). The study was approved by the hospital ethics committee. Every patient was given a sufficient description of the study and signed an informed consent prior to the study.
The pretreatment followed for all samples was 10 μL of the IS was added to 20 μL of the standard and unknown serum samples and mixed vigorously for 20 s. Five-hundred microliters of acetonitrile was added, vortexed for 1 min, and centrifuged for 6 min at 12,000 rpm. After transferring the supernatant to a fresh centrifuge tube, it was evaporated to dryness under a stream of nitrogen at room temperature. Two-hundred microliters of mobile phase was added to the resulting residue and vortexed for 1 min; 100 μL was analyzed.
Fifty diabetes mellitus type 2 patients with known or suspected Gram-positive DFI (Wagner score grade 3/4, equivalent to Texas classification of at least B3), and 50 nondiabetic patients with pneumonia requiring antibiotic therapy from 2014 to 2016 were included. […] The estimated ClCr was calculated from serum creatinine using the Cockcroft-Gault formula [29]. CrCl = (140-age in years) × body weight in kg/(serum creatinine in […]) × 0.85 for females). Statistical analysis was performed by SPSS 25.0.

CN[C@H](CC(C)C)C(=O)N[C@H]1C(=O)N[C@@H](CC(N)=O)C(=O)N[C@H]2C(=O)N[C@H]3C(=O)N[C@H](C(=O)N[C@H](C(=O)O)c4cc(O)cc(O)c4-c4cc3ccc4O)[C@H](O)c3ccc(c(Cl)c3)Oc3cc2cc(c3O[C@@H]2O[C@H](CO)[C@@H](O)[C@H](O)[C@H]2O[C@H]2C[C@](C)(N)[C@H](O)[C@H](C)O2)Oc2ccc(cc2Cl)[C@H]1O [vancomycin, Vancomycin]
Stability in serum (in words) [1]: stable | Trough Concentration of vancomycin ([2]; DFI group (n = 50), type 2 diabetes patients): 8.20 ± 2.83 µg/mL | Trough concentration of vancomycin, range ([2]; DFI patients (n = 50)): 4.80 to 14.2 µg/mL | Trough Concentration of vancomycin ([2]; Nondiabetic group (n = 50), pneumonia patients): 15.8 ± 5.43 µg/mL | Trough concentration of vancomycin, range ([2]; nondiabetic patients (n = 50)): 8.60 to 19.5 µg/mL
